T1: HPSE (Homo sapiens, UniProt Q9Y251)
T1 construct: purchased Bio-Techne
T1 sequence (Q9Y251 158-543 limits assumed): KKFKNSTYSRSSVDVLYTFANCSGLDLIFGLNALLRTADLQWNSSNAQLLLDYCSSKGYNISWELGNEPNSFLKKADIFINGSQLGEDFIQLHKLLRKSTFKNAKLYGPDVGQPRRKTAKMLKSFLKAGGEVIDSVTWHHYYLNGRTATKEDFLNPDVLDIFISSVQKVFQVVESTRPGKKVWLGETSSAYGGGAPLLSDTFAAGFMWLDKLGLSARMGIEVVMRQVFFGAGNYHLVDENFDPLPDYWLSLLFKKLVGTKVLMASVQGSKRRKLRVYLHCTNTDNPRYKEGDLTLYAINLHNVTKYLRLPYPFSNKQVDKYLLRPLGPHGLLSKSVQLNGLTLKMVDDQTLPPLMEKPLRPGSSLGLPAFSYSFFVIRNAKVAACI
T1 sequence (Q9Y251 36-109 limits assumed): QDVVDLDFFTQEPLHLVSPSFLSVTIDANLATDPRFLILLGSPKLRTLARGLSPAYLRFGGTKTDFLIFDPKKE


Experiments:
HPSE = target: T1, HPSE; assay: HPSE inhibitor study (ELISA-based HPSE activity assay with labeled rhSynd4); format: biochemical; conditions: 10 ng HPSE, 50 mM NaAc pH 4.0, 37° C. for two hours, OD 450
Protocol: In order to prepare the sample for the assay, the goat anti-human Syndecan-4 capture antibody was diluted to a working concentration in PBS without carrier protein. A 96-well microplate was immediately coated with 100 μL per well of the diluted capture antibody. The plate was sealed and incubated overnight at room temperature. Each well was subsequently aspirated and washed with wash buffer, repeating the process two times for a total of three washes. The wash buffer is 25 mM Tris (pH 7.6), 137 mM NaCl, and 0.01% Tween (TBST). Each well was washed by filling each well with 400 μL of wash buffer using a squirt bottle, manifold dispenser, or autowasher. After the last wash, any remaining wash buffer was removed by aspirating or by inverting the plate and blotting it against clean paper towels. The microplate was then blocked by adding 300 μL of reagent diluent to each well and incubating the microplate for a minimum of 1 hour. The microplate was then aspirated/washed as described above for a total of three washes, and the microplate was thus ready for sample addition.
To perform the ELISA assay, 100 μL of the HPSE treated mixture diluted with 1% BSA in PBS buffer were added per well. The HPSE treated mixture was diluted such that the concentration of rhSynd4 was 25 ng/ml. […]
The absorbance (OD 450) for each of the three compounds was determined using a microplate reader set to 450 nm. […]

[1] = target: goat anti-human lumican capture antibody; assay: ELISA detection of KS non-reducing end labeled recombinant lumican; format: binding; conditions: 0-100 ng labeled lumican, 80 ng/well capture antibody, OD 450
Protocol: This study confirmed that the endoglycosidase activity assay of this disclosure is applicable to other endoglycosidases in addition to HPSE. An ELISA assay was first used to detect labeled recombinant lumican. The non-reducing ends of KS chains on recombinant human lumican were labeled through in vitro incorporation of GlcNAz by B3GNT2 (a KS specific GlcNAc transferase) according to the procedure described in Example 2 above. Increasing amounts of the labeled lumican (0-100 ng) were subsequently immobilized on a 96-well plate coated with 80 ng/well of goat anti-human lumican capture antibody. A DuoSet ELISA kit of Human Lumican was used to perform an ELISA assay similarly to the procedure described in Example 4 above. The absorbance (OD 450) of each well was determined using a microplate reader set to 450 nm. FIG. 8 is a graph of the OD 450 of increasing amounts of labeled lumican. The data was fit to the equation y=Cx/(Kd+x) to obtain curve 802, where Kd is the ligand-receptor binding affinity (dissociation constant for lumican bound to the capture antibody).

[2] = target: goat anti-human Syndecan-4 capture antibody; assay: ELISA detection of HS non-reducing end labeled rhSynd4; format: binding; conditions: 0-50 ng labeled rhSynd4, 80 ng/well capture antibody, OD 450, fit y=Cx/(Kd+x)
Protocol: In order to establish a high throughput compatible method for HS detection, an ELISA assay was used to attempt to detect labeled rhSynd4. The non-reducing ends of HS chains on rhSynd4 were labeled according to Example 2 above. Increasing amounts of the labeled rhSynd4 (0-50 ng) were subsequently immobilized on a 96-well plate coated with 80 ng/well of goat anti-human Syndecan-4 capture antibody. The Syndecan-4 DuoSet kit was used to perform an ELISA assay (described in detail in Example 4 below). The absorbance (OD 450) of each well was determined using a microplate reader set to 450 nanometers (nm).
FIG. 4 is a graph of the OD 450 of increasing amounts of labeled rhSynd4. The data was fit to the equation y=Cx/(Kd+x) to obtain curve 402, where Kd is the ligand-receptor binding affinity (dissociation constant for rhSynd4 bound to the capture antibody).

Molecule	EC50 (HPSE) [mg/L]	further results
chondroitin sulfate	0.39	
heparin	0.12	
labeled lumican: recombinant human lumican with KS non-reducing ends labeled with GlcNAz by B3GNT2		Kd (dissociation constant for lumican bound to the capture antibody) [1]: 7.58 ng
labeled rhSynd4: recombinant human Syndecan-4 with HS non-reducing ends labeled with GlcNAz and biotin by click chemistry (protein, UniProt P31431 19-198, looked up, HS ends labeled GlcNAz and biotin, recombinant human Syndecan-4 with HS non-reducing ends labeled with GlcNAz and biotin by click chemistry) Syndecan-4: ESIRETEVIDPQDLLEGRYFSGALPDDEDVVGPGQESDDFELSGSGDLDDLEDSMIGPEVVHPLVPLDNHIPERAGSGSQVPTEPKKLEENEVIPKRISPVEESEDVSNKVSMSSTVQGSNIFERTEVLAALIVGGIVGILFAVFLILLLMYRMKKKDEGSYDLGKKPIYKKAPTNEFYA		Kd (dissociation constant for rhSynd4 bound to the capture antibody) [2]: 3.4 ng

— patent US10890586B2, “Methods and kits for assaying endoglycosidase activity” (Bio-Techne Corporation, priority 2016, dated 2021)
